According to the supplement of paper PMC10307832:

How the values were obtained:
Experiment in all cases: relative viability (nuclei count vs DMSO), 5 days (fraction); higher = more cells survive
[1] = compound: COC1=CC=C(C=C1)COC2=C(C=C(C=C2)CC3=CN=C(N=C3N)N)OC [GW-2580] + Cc1cc(Nc2cc(N3CCN(C)CC3)nc(Sc3ccc(NC(=O)C4CC4)cc3)n2)n[nH]1 [Tozasertib] (partner 0.1 µM)
How it was run: (§1)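 For relative viability, nuclei counts in treated wells were divided by those in vehicle wells. Lung cancer cell lines had been pin-tool dosed in 1536-well plates the day after seeding and cultured for 5 days, then fixed and stained in one step (final 0.05% Triton X-100, 1% formaldehyde, 1 ug/ml Hoechst) and imaged at 4×. Doses were one drug alone or a fixed anchor-drug dose plus five library-drug doses (not always all listed) in √10 steps, and values are duplicate-plate medians.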

[2] = compound: COC1=CC=C(C=C1)COC2=C(C=C(C=C2)CC3=CN=C(N=C3N)N)OC [GW-2580] + COc1cccc2cc(-c3nc([C@H]4CC[C@H](C(=O)O)CC4)n4ncnc(N)c34)[nH]c12 [OSI-027] (partner 0.5 µM)
How it was run: as §1

[3] = compound: Cc1cnc(Nc2ccc(OCCN3CCCC3)cc2)nc1Nc1cccc(S(=O)(=O)NC(C)(C)C)c1 [Fedratinib] + Nc1nc2[nH]cc(CCc3ccc(C(=O)N[C@@H](CCC(=O)O)C(=O)O)cc3)c2c(=O)[nH]1 [Pemetrexed] (partner 0.2 µM)
How it was run: as §1

[4] = compound: COC1=CC=C(C=C1)COC2=C(C=C(C=C2)CC3=CN=C(N=C3N)N)OC [GW-2580] + C[C@]1(O)C[C@@H](c2nc(-c3ccc4ccc(-c5ccccc5)nc4c3)c3c(N)nccn32)C1 [Linsitinib] (partner 1 µM)
How it was run: as §1

[5] = compound: COC1=CC=C(C=C1)COC2=C(C=C(C=C2)CC3=CN=C(N=C3N)N)OC [GW-2580] + N=C(N)NC(=N)NCCc1ccccc1 [Phenformin] (partner 250 µM)
How it was run: as §1

| Cell Line | relative viability ([1]; first compound 0.08 µM) | relative viability ([1]; first compound 0.8 µM) | relative viability ([1]; first compound 2.53 µM) | relative viability ([1]; first compound 8 µM) | relative viability ([2]; first compound 0.08 µM) | relative viability ([2]; first compound 0.8 µM) | relative viability ([2]; first compound 2.53 µM) | relative viability ([2]; first compound 8 µM) | relative viability ([3]; first compound 0.1 µM) | relative viability ([3]; first compound 0.3162 µM) | relative viability ([3]; first compound 1 µM) | relative viability ([4]; first compound 0.08 µM) | relative viability ([4]; first compound 0.8 µM) | relative viability ([4]; first compound 2.53 µM) | relative viability ([4]; first compound 8 µM) | relative viability ([5]; first compound 0.08 µM) | relative viability ([5]; first compound 0.8 µM) | relative viability ([5]; first compound 2.53 µM) | relative viability ([5]; first compound 8 µM) |
| --- | --- | --- | --- | --- | --- | --- | --- | --- | --- | --- | --- | --- | --- | --- | --- | --- | --- | --- | --- |
| NCI-H1666 | 0.675 | 0.661 | 0.581 | 0.592 | 0.941 | 1.12 | 0.911 | 0.77 | 0.793 | 0.869 | 0.831 | 0.765 | 1.02 | 0.742 | 0.724 | 0.581 | 0.607 | 0.604 | 0.554 |
| LC-2-ad | 0.501 | 0.412 | 0.405 | 0.475 | 0.88 | 0.867 | 0.87 | 0.78 | 0.284 | 0.267 | 0.277 | 0.817 | 0.874 | 0.84 | 0.786 | 0.595 | 0.674 | 0.634 | 0.682 |
| SK-LU-1 | 0.362 | 0.338 | 0.272 | 0.292 | 0.366 | 0.347 | 0.321 | 0.348 | 1 | 0.906 | 0.837 | 1.39 | 1.23 | 1.04 | 1.16 | 0.559 | 0.731 | 0.383 | 0.537 |
| COR-L 105 | 0.317 | 0.311 | 0.352 | 0.387 | 0.662 | 0.807 | 0.713 | 0.676 | 0.96 | 1.1 | 0.827 | 1.03 | 0.807 | 0.929 | 1.01 | 0.529 | 0.478 | 0.508 | 0.491 |
| NCI-H1975 | 0.854 | 1.06 | 0.614 | 0.654 | 0.952 | 0.829 | 0.709 | 0.58 | 0.29 | 0.306 | 0.272 | 1.19 | 0.931 | 0.89 | 0.875 | 0.44 | 0.43 | 0.414 | 0.418 |
| NCI-H1993 | 0.618 | 0.526 | 0.574 | 0.549 | 0.656 | 0.559 | 0.55 | 0.561 | 0.523 | 0.513 | 0.589 | 0.757 | 0.735 | – | 0.714 | 0.573 | 0.461 | 0.486 | 0.518 |
| RERF-LC-KJ | 0.474 | 0.593 | 0.508 | 0.367 | 0.584 | 0.606 | 0.501 | 0.484 | 0.454 | 0.463 | 0.502 | 0.946 | 0.939 | 0.816 | 0.815 | 0.435 | 0.418 | 0.445 | 0.395 |
| NCI-H23 | 0.418 | 0.401 | 0.392 | 0.31 | 0.561 | 0.644 | 0.599 | 0.347 | 0.681 | 0.59 | 0.497 | 0.728 | 0.626 | 0.524 | 0.517 | 0.872 | 0.768 | 0.798 | 0.851 |
| HCC-366 | 0.102 | 0.146 | 0.12 | 0.19 | 0.944 | 1.13 | 0.894 | 0.818 | 0.154 | 0.168 | 0.142 | 0.51 | 0.678 | 0.496 | 0.882 | 0.682 | 0.573 | 0.595 | 0.546 |
| EMC-BAC-2 | 0.279 | 0.261 | 0.24 | 0.261 | 0.364 | 0.384 | 0.364 | 0.337 | 0.425 | 0.481 | 0.39 | 0.839 | 0.876 | 0.727 | 0.875 | 0.558 | 0.501 | 0.416 | 0.493 |
| NCI-H2405 | 0.8 | 0.726 | 0.656 | 0.524 | 0.643 | 0.668 | 0.609 | 0.618 | 1.07 | 1.12 | 0.863 | 0.979 | 0.85 | 0.886 | 0.861 | 0.401 | 0.393 | 0.308 | 0.333 |
| NCI-H358 | 0.103 | 0.117 | 0.11 | 0.104 | 0.944 | 0.817 | 0.667 | 0.742 | 0.175 | 0.155 | 0.156 | 0.888 | 0.849 | 0.707 | 0.684 | 0.365 | 0.518 | 0.36 | 0.353 |
| NCI-H1944 | 0.267 | 0.256 | 0.253 | 0.205 | 0.463 | 0.46 | 0.439 | 0.365 | 0.665 | 0.643 | 0.624 | 1.32 | 1.4 | 1.27 | 1.07 | 0.198 | 0.201 | 0.169 | 0.189 |
| EPLC-272H | 0.321 | 0.266 | – | 0.214 | 0.284 | 0.308 | – | 0.273 | 0.389 | 0.272 | 0.343 | 1.05 | 1.38 | 1.24 | 1.14 | 0.272 | 0.339 | – | 0.354 |
| NCI-H1915 | 0.469 | 0.44 | 0.489 | 0.387 | 0.638 | 0.649 | 0.626 | 0.598 | 0.599 | 0.464 | 0.425 | 1.2 | 1.13 | 1.1 | 1.11 | 0.392 | 0.368 | 0.362 | 0.38 |
